Source: patent publication US11945798B2, “Substituted aminopyridine compounds as EGFR inhibitors” (YUHAN CORPORATION, priority 2021, dated 2024)
Read-outs that look alike come from different tables or passages of the source.

Experiments:
[1] = molecular target: EGFR del19/T790M/C797S (Homo sapiens, UniProt P00533, C797S/DEL746-750/T790M); assay: Biochemical EGFR kinase assay (Lance Ultra TR-FRET), del19/T790M/C797S
Procedure: (§1) Biochemical EGFR kinase assays were conducted using Lance Ultra time-resolved fluorescence resonance energy transfer (TR-FRET) technology from Perkin-Elmer. Compounds of the invention were initially diluted to 20 mM in 100% DMSO for storage and made into kinase buffer solution to create a compound concentration ranging from 0.003 μM and 10 μM.
(§2) Each kinase reactions were incubated at room temperature for 1 hour and then stopped by the addition of 4 μL of stop solution (10 mM EDTA). The specific Europium-labeled-anti-phosphopeptide antibody (PerkinElmer, AD0069) diluted in LANCE detection buffer was then added to a final concentration of 2 nM. After 60 minutes incubation at room temperature the LANCE signal was measured on an EnVision Multilabel Reader (Perkin-Elmer). Excitation wavelength was set at 320 nm and emission monitored at 615 nm (donor) and 665 nm (acceptor). The IC50 values were determined using GraphPad prism software (GraphPad Software, Inc., San Diego, CA, USA).

[2] = molecular target: EGFR L858R/T790M/C797S (Homo sapiens, UniProt P00533, C797S/L858R/T790M); assay: Biochemical EGFR kinase assay (Lance Ultra TR-FRET), L858R/T790M/C797S
EGFR L858R/T790M/C797S, sequence (P00533 25-1210 T790M/C797S/L858R): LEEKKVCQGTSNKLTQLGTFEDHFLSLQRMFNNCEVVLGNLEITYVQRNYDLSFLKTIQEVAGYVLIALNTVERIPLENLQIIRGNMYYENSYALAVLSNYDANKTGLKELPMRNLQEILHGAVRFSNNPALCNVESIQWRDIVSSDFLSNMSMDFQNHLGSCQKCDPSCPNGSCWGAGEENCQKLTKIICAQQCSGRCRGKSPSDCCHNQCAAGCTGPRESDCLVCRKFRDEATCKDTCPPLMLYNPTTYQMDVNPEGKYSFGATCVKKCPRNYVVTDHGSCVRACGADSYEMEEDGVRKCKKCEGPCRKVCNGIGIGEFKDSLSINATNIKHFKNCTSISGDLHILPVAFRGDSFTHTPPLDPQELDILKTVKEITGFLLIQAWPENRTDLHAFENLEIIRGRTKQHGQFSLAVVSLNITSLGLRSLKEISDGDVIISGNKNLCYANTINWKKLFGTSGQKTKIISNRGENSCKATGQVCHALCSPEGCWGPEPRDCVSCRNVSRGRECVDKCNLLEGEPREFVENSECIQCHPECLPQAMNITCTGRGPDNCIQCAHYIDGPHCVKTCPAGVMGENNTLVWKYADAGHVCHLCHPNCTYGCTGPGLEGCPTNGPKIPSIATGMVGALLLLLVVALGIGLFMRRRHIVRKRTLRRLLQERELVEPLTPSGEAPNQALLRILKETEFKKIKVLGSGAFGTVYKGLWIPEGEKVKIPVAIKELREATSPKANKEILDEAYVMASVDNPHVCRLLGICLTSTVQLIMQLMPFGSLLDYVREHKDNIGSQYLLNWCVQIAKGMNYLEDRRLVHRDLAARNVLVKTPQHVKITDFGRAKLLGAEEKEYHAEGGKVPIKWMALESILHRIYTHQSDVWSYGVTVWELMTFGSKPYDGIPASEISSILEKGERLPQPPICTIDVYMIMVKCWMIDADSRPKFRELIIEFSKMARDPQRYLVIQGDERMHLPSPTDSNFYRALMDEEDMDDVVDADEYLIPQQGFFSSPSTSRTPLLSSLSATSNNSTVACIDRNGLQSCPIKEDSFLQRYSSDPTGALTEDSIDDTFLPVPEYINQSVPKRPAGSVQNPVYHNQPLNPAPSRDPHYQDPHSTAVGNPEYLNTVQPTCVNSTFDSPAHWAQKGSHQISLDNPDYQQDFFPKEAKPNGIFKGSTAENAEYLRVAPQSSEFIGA
Procedure: as §1, §2

[3] = molecular target: EGFR del19/C797S (Homo sapiens, UniProt P00533, C797S/DEL746-750); assay: Biochemical EGFR kinase assay (Lance Ultra TR-FRET), del19/C797S
Procedure: as §1, §2

[4] = molecular target: EGFR wildtype (WT) (Homo sapiens, UniProt P00533); assay: Biochemical EGFR kinase assay (Lance Ultra TR-FRET), wildtype
EGFR wildtype (WT), sequence (P00533 25-1210): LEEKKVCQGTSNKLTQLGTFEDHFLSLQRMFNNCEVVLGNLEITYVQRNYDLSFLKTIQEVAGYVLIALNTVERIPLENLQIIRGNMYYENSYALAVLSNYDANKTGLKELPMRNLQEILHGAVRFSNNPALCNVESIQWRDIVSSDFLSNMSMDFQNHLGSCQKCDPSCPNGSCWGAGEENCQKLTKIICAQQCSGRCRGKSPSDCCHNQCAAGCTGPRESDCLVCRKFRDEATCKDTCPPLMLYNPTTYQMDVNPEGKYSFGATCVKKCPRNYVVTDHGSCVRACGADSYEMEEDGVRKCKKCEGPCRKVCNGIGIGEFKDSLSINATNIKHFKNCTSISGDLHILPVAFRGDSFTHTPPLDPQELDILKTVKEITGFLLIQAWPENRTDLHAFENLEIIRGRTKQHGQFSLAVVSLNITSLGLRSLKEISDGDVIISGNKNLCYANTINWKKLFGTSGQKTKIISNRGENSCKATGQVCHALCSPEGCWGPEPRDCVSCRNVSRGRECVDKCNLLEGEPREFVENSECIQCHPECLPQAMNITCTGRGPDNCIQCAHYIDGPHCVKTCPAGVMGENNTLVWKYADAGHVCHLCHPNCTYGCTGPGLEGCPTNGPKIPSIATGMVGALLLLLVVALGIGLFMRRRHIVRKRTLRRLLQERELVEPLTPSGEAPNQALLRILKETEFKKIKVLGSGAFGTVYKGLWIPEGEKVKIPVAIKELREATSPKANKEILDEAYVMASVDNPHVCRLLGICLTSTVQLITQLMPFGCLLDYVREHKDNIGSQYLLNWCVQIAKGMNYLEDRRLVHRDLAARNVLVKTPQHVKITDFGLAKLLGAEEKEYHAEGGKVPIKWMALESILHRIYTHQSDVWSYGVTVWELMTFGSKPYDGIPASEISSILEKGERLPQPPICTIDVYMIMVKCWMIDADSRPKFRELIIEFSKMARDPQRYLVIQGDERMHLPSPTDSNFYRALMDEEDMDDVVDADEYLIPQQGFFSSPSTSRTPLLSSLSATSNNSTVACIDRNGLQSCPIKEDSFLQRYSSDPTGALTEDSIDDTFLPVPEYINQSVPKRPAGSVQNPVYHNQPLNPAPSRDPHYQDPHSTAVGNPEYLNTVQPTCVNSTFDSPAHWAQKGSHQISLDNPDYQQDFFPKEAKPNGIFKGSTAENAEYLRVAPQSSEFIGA
Procedure: as §1, §2

[5] = molecular target: EGFR L858R/C797S (Homo sapiens, UniProt P00533, C797S/L858R); assay: Biochemical EGFR kinase assay (Lance Ultra TR-FRET), L858R/C797S
EGFR L858R/C797S, sequence (P00533 25-1210 C797S/L858R): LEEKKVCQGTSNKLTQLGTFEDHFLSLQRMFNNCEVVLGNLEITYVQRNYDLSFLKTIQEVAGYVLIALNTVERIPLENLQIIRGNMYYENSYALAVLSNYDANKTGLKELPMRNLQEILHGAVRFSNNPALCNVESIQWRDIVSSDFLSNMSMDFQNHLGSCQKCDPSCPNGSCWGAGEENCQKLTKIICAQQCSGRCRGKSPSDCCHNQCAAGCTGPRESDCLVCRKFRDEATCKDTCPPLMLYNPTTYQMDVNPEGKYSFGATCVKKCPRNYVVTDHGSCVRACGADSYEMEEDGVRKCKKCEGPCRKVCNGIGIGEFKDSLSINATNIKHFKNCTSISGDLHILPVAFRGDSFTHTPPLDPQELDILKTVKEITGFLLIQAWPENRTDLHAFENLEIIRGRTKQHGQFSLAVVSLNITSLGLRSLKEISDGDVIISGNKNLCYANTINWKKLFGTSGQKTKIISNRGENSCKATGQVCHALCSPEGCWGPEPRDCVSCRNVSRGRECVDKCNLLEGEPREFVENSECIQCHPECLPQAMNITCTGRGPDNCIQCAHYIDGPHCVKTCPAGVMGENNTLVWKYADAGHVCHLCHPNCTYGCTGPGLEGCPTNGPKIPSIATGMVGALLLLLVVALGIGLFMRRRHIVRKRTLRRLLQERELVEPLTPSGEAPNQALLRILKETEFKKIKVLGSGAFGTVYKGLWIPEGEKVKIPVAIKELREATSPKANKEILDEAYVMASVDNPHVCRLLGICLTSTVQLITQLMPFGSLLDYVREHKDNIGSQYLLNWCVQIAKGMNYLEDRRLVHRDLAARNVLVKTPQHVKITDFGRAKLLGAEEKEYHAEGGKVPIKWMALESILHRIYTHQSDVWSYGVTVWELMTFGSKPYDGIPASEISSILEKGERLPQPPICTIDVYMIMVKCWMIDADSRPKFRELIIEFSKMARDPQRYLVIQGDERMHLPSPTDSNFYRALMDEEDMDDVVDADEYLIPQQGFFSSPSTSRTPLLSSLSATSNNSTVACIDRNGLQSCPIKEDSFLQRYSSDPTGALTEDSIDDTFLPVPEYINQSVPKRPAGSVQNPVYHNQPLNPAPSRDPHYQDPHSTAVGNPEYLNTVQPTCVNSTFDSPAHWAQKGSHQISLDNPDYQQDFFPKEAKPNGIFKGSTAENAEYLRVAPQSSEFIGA
Procedure: as §1, §2

[6] = Km ATP, read-out: IC50 del19/T790M/C797S (nM) Km ATP
[7] = Km ATP, read-out: IC50 L858R/T790M/C797S (nM) Km ATP
[8] = Km ATP, read-out: IC50 del19/C797S (nM) Km ATP
[9] = Km ATP, read-out: IC50 WT (nM) Km ATP
[10] = Km ATP, read-out: IC50 L858R/C797S (nM) Km ATP
[11] = IC50 del19/T790M/C797S (nM) 100 μM ATP, 100 μM ATP
[12] = IC50 L858R/T790M/C797S (nM) 100 μM ATP, 100 μM ATP
[13] = IC50 del19/C797S (nM) 100 μM ATP, 100 μM ATP
[14] = IC50 WT (nM) 100 μM ATP, 100 μM ATP
[15] = IC50 L858R/C797S (nM) 100 μM ATP, 100 μM ATP

EGFR del19/T790M/C797S, sequence (P00533 with tags, fused parts or gaps DEL746-750/T790M/C797S): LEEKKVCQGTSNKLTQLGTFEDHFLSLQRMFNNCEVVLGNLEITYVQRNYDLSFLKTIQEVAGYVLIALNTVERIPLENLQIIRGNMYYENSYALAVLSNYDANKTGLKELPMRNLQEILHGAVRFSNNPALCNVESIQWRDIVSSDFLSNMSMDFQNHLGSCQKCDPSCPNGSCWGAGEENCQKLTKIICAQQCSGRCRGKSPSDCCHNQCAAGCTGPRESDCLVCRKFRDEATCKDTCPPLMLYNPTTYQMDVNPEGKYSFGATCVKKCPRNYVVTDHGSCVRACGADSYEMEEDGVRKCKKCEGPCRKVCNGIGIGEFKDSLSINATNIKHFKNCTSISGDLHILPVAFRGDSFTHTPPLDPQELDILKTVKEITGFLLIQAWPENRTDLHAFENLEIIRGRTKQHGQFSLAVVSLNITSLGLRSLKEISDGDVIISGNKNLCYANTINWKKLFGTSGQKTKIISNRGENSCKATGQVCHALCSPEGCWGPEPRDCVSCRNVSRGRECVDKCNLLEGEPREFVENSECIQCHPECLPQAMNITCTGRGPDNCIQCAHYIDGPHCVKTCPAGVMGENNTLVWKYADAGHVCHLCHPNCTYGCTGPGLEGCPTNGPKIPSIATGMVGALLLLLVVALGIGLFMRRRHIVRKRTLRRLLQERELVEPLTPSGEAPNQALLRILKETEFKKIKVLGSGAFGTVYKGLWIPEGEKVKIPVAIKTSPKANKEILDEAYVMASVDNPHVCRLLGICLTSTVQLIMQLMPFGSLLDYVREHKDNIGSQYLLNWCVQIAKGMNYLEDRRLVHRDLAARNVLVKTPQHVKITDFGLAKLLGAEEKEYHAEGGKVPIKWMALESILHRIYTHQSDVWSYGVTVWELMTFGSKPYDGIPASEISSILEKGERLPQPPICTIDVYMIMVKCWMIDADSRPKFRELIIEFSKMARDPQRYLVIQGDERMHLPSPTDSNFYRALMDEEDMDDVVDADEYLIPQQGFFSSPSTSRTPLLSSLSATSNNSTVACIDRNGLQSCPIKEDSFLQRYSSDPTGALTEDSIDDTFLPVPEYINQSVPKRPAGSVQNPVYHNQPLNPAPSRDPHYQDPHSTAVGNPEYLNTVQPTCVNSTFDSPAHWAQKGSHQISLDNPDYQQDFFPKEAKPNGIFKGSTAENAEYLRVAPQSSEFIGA

| SMILES | IC50 [1, 6] [nM] | IC50 [2, 7] [nM] | IC50 [3, 8] [nM] | IC50 [4, 9] [nM] | IC50 [5, 10] [nM] | IC50 [1, 11] [nM] | IC50 [2, 12] [nM] | IC50 [3, 13] [nM] | IC50 [4, 14] [nM] | IC50 [5, 15] [nM] |
| --- | --- | --- | --- | --- | --- | --- | --- | --- | --- | --- |
| O=C(c1cnc(Nc2ccnc(-c3cnn(S(=O)(=O)C4CC4)c3)n2)cc1NC1CCC(CO)C1)C1CC1 (stereo not shown) [Example 13, Cyclopropyl(6-((2-(1-(cyclopropylsulfonyl)-1H-pyrazol-4-yl)pyrimidin-4-yl)amino)-4-((3-(hydroxymethyl)cyclopentyl)amino)pyridin-3-yl)methanone] | 0.2 | 0.2 | 4.5 | 28.2 | 61.7 | – | – | – | – | – |
| CN(C)Cc1ccc(CNc2cc(Nc3ccnc(-c4cnn(C(F)F)c4)n3)ncc2C(=O)C2CC2)cc1 [Example 16, Cyclopropyl(6-((2-(1-(difluoromethyl)-1H-pyrazol-4-yl)pyrimidin-4-yl)amino)-4-((4-((dimethylamino)methyl)benzyl)amino)pyridin-3-yl)methanone] | 2.3 | 0.4 | 13.2 | 176 | 30.8 | – | – | – | – | – |
| CN(C)Cc1ccc(CNc2cc(Nc3ccnc(-c4cnn(S(=O)(=O)C5CC5)c4)n3)ncc2C(=O)C2CC2)s1 [Example 20, Cyclopropyl(6-((2-(1-(cyclopropylsulfonyl)-1H-pyrazol-4-yl)pyrimidin-4-yl)amino)-4-(((5-((dimethylamino)methyl)thiophen-2-yl)methyl)amino)pyridin-3-yl)methanone] | 2.2 | 3.9 | 415 | 239 | 59.2 | – | – | – | – | – |
| CN(C)C1CCN(CCNc2cc(Nc3ccnc(-c4cnn(S(=O)(=O)C5CC5)c4)n3)ncc2C(=O)C2CC2)CC1 [Example 21, Cyclopropyl(6-((2-(1-(cyclopropylsulfonyl)-1H-pyrazol-4-yl)pyrimidin-4-yl)amino)-4-((2-(4-(dimethylamino)piperidin-1-yl)ethyl)amino)pyridin-3-yl)methanone] | 0.4 | 1.1 | 72.3 | 63.5 | 16.4 | – | – | – | – | – |
| O=C(c1cnc(Nc2ccnc(-c3cnn(S(=O)(=O)C4CC4)c3)n2)cc1N[C@H]1CCC[C@H](O)C1)C1CC1 [Example 22, Cyclopropyl(6-((2-(1-(cyclopropylsulfonyl)-1H-pyrazol-4-yl)pyrimidin-4-yl)amino)-4-(((1S,3S)-3-hydroxycyclohexyl)amino)pyridin-3-yl)methanone] | – | – | – | – | – | 0.9 | 1.1 | 14 | > 10000 | 33.2 |
| O=C(c1cnc(Nc2ccnc(-c3cnn(S(=O)(=O)C4CC4)c3)n2)cc1N[C@H]1CC[C@@H](O)CC1)C1CC1 [Example 23, Cyclopropyl(6-((2-(1-(cyclopropylsulfonyl)-1H-pyrazol-4-yl)pyrimidin-4-yl)amino)-4-(((1s,4s)-4-hydroxycyclohexyl)amino)pyridin-3-yl)methanone] | – | – | – | – | – | 0.7 | 0.5 | 2.4 | 3410 | 6.4 |
| O=C(c1cnc(Nc2ccnc(-c3cnn(S(=O)(=O)C4CC4)c3)n2)cc1N[C@H]1CC[C@@H](O)C1)C1CC1 [Example 25, Cyclopropyl(6-((2-(1-(cyclopropylsulfonyl)-1H-pyrazol-4-yl)pyrimidin-4-yl)amino)-4-(((1S,3R)-3-hydroxycyclopentyl)amino)pyridin-3-yl)methanone] | – | – | – | – | – | 0.9 | 1 | 11.8 | > 10000 | 29.4 |
| O=C(c1cnc(Nc2ccnc(-c3cnn(S(=O)(=O)C4CC4)c3)n2)cc1N[C@@H]1CC[C@@H](O)C1)C1CC1 [Example 26, Cyclopropyl(6-((2-(1-(cyclopropylsulfonyl)-1H-pyrazol-4-yl)pyrimidin-4-yl)amino)-4-(((1R,3R)-3-hydroxycyclopentyl)amino)pyridin-3-yl)methanone] | – | – | – | – | – | 2.9 | 3.3 | 55.3 | > 10000 | 118 |
| CC(C)(CO)CNc1cc(Nc2ccnc(-c3cnn(S(=O)(=O)C4CC4)c3)n2)ncc1C(=O)C1CC1 [Example 28, Cyclopropyl(6-((2-(1-(cyclopropylsulfonyl)-1H-pyrazol-4-yl)pyrimidin-4-yl)amino)-4-((3-hydroxy-2,2-dimethylpropyl)amino)pyridin-3-yl)methanone] | – | – | – | – | – | 2.6 | 32.1 | 176 | > 10000 | 234 |
| O=C(c1cnc(Nc2ccnc(-c3cnn(S(=O)(=O)C4CC4)c3)n2)cc1NCCC1(O)CC1)C1CC1 [Example 29, Cyclopropyl(6-((2-(1-(cyclopropylsulfonyl)-1H-pyrazol-4-yl)pyrimidin-4-yl)amino)-4-((2-(1-hydroxycyclopropyl)ethyl)amino)pyridin-3-yl)methanone] | – | – | – | – | – | 1.8 | 10 | 3.5 | > 10000 | 120 |
| CN[C@H]1CC[C@@H](Nc2cc(Nc3ccnc(-c4cnn(S(=O)(=O)C5CC5)c4)n3)ncc2C(=O)C2CC2)CC1 [Example 32, Cyclopropyl-(6-((2-(1-(cyclopropylsulfonyl)-1H-pyrazol-4-yl)pyrimidin-4-yl)amino)-4-(((1s,4s)-4-(methylamino)cyclohexyl)amino)pyridin-3-yl)methanone] | – | – | – | – | – | 1.2 | 2 | 51.1 | > 10000 | 54.7 |
| C[C@]1(O)CC[C@@H](Nc2cc(Nc3ccnc(-c4cnn(S(=O)(=O)C5CC5)c4)n3)ncc2C(=O)C2CC2)CC1 [Example 33, Cyclopropyl(6-((2-(1-(cyclopropylsulfonyl)-1H-pyrazol-4-yl)pyrimidin-4-yl)amino)-4-(((1s,4s)-4-hydroxy-4-methylcyclohexyl)amino)pyridin-3-yl)methanone] | 1 | 0.3 | – | 13.9 | 0.9 | 0.8 | 0.8 | 1.7 | > 10000 | 6.5 |
| O=C(c1cnc(Nc2ccnc(-c3cnn(S(=O)(=O)C4CC4)c3)n2)cc1NC1CCCOC1)C1CC1 (stereo not shown) [Example 34, Cyclopropyl(6-((2-(1-(cyclopropylsulfonyl)-1H-pyrazol-4-yl)pyrimidin-4-yl)amino)-4-((tetrahydro-2H-pyran-3-yl)amino)pyridin-3-yl)methanone] | – | – | – | – | – | 2 | 5.3 | 124 | > 10000 | 398 |
| O=C(c1cnc(Nc2ccnc(-c3cnn(S(=O)(=O)C4CC4)c3)n2)cc1NC1CCOCC1)C1CC1 [Example 35, Cyclopropyl(6-((2-(1-(cyclopropylsulfonyl)-1H-pyrazol-4-yl)pyrimidin-4-yl)amino)-4-((tetrahydro-2H-pyran-4-yl)amino)pyridin-3-yl)methanone] | – | – | – | – | – | 5.2 | 23.1 | 602 | > 10000 | 543 |
| O=C(c1cnc(Nc2ccnc(-c3cnn(S(=O)(=O)C4CC4)c3)n2)cc1NC1CC[C@@H](O)[C@@H](O)C1)C1CC1 (stereo partly drawn) [Example 36, Cyclopropyl(6-((2-(1-(cyclopropylsulfonyl)-1H-pyrazol-4-yl)pyrimidin-4-yl)amino)-4-(((3S,4R)-3,4-dihydroxycyclohexyl)amino)pyridin-3-yl)methanone] | – | – | – | – | – | 0.5 | 0.9 | 5.4 | > 10000 | 15.5 |
| CN(C)CCN1CCC(Nc2cc(Nc3ccnc(-c4cnn(S(=O)(=O)C5CC5)c4)n3)ncc2C(=O)C2CC2)CC1 [Example 37, Cyclopropyl(6-((2-(1-(cyclopropylsulfonyl)-1H-pyrazol-4-yl)pyrimidin-4-yl)amino)-4-((1-(2-(dimethylamino)ethyl)piperidin-4-yl)amino)pyridin-3-yl)methanone] | 1 | 0.4 | 36.9 | 113 | 9.7 | 1.2 | 2 | 79.9 | > 10000 | 168 |
| O=C(c1cnc(Nc2ccnc(-c3cnn(S(=O)(=O)C4CC4)c3)n2)cc1NC1CCN(C2COC2)CC1)C1CC1 [Example 38, Cyclopropyl(6-((2-(1-(cyclopropylsulfonyl)-1H-pyrazol-4-yl)pyrimidin-4-yl)amino)-4-((1-(oxetan-3-yl)piperidin-4-yl)amino)pyridin-3-yl)methanone] | – | – | – | – | – | 2.7 | 9.9 | 231 | > 10000 | 200 |
